According to BigSolDB 2.1:

O=C(O)CCc1nc(-c2ccccc2)c(-c2ccccc2)o1
solubility (mole fraction)
Conditions | 278.15 K | 283.15 K | 288.15 K | 293.15 K | 298.15 K | 303.15 K | 308.15 K | 313.15 K | 318.15 K | 323.15 K
in DMAc | 0.205 | 0.213 | 0.223 | 0.232 | 0.243 | 0.252 | 0.261 | 0.273 | 0.284 | 0.295
in DMF | 0.136 | 0.146 | 0.154 | 0.164 | 0.174 | 0.186 | 0.197 | 0.207 | 0.219 | 0.232
in DMSO | – | – | – | 0.214 | 0.226 | 0.24 | 0.256 | 0.272 | 0.287 | 0.303
in ethanol | 0.00257 | 0.00315 | 0.00388 | 0.00476 | 0.00592 | 0.00716 | 0.00894 | 0.0112 | 0.014 | 0.0177
in ethyl acetate | 0.00398 | 0.00472 | 0.00558 | 0.00661 | 0.00778 | 0.00925 | 0.011 | 0.0129 | 0.0151 | 0.0178
in methanol | 0.0023 | 0.00282 | 0.00343 | 0.00426 | 0.00523 | 0.00657 | 0.00821 | 0.0103 | 0.013 | 0.0164
in methyl acetate | 0.00533 | 0.00626 | 0.00735 | 0.00867 | 0.0102 | 0.012 | 0.0146 | 0.0167 | 0.0192 | 0.022
in n-butanol | 0.00266 | 0.00328 | 0.00422 | 0.00533 | 0.00663 | 0.008 | 0.0105 | 0.0131 | 0.0164 | 0.0205
in n-butyl acetate | 0.00293 | 0.00347 | 0.00416 | 0.00489 | 0.00593 | 0.00707 | 0.00842 | 0.01 | 0.012 | 0.0143
in n-pentanol | 0.00266 | 0.00349 | 0.00458 | 0.00561 | 0.00701 | 0.00864 | 0.0108 | 0.0134 | 0.0168 | 0.021
in n-pentyl acetate | 0.00274 | 0.00331 | 0.00387 | 0.0046 | 0.0055 | 0.00654 | 0.00782 | 0.00931 | 0.0111 | 0.0132
in n-propanol | 0.00255 | 0.00326 | 0.00414 | 0.00519 | 0.00637 | 0.00794 | 0.01 | 0.0122 | 0.0161 | 0.0201
in n-propyl acetate | 0.0032 | 0.00386 | 0.00463 | 0.00534 | 0.00656 | 0.00781 | 0.00935 | 0.0111 | 0.0132 | 0.0158
